Measured values taken from patent US20050148838A1, “Pharmaceutical discovery and development” (priority 2002, published 2005).

Legend:
[1] = Coulometric EC-MS (voltammetric mass spectrometry), Phase I type EC oxidation; type: physicochemical; conditions: per product ion
From the text: Referring to FIG. 1A, a Model 1100 LC/MSD single quadrupole mass spectrometer 10 (Agilent Technologies, Palo Alto, Calif., USA) was used in combination with a Coulochem® III ECD 12 and Model 5021 coulometric cell 14 (ESA Inc., Chelmsford, Mass., USA).
Compounds are characterized via automated sequences, in which EC potential is changed from, e.g., 0-1200 mV(vs. Pd) in increments of, e.g., 200 mV. EC current and MS ion abundance at specific mass-to-charge ratios (m/z) is monitored. In accordance with the present invention, EC (e.g., coulometric, or amperometric) and reaction product profiles for various drug candidates can be obtained reproducibly. Peak area for parent compounds is inversely proportional to EC response with concomitant formation of reaction products.

[2] = EC-MS oxidation with co-injected glutathione (Phase II type conjugation of EC-generated electrophiles)
Method: Compounds (200 ng each), diluted in mobile phase (50% aqueous methanol with added electrolyte), were introduced into the system by FIA with a solvent flow rate of 0.1 ml /minute. Compounds undergoing rapid electrolysis and products were monitored by MS. Each compound was analyzed at several oxidative potentials (e.g., −100, 300, 700, 1100 mV vs. Pd reference). Substrate-product pairs were used to aid in the study of Phase I type product formation as a function of potential (i.e. voltammetric mass spectrometry, VMS).
For Phase I type EC transformation studies, changes in EC current, and the corresponding consumption (oxidation) of substrate and associated product formation were monitored as a function of electrode potential. In these studies a solvent flow rate of 0.1 ml/min. was used with ESI and a single analysis was complete in less than 2.5 min. To study both Phase I oxidative reactions and potential-dependent covalent binding (Phase II) total time for characterization of each compound required approximately 15 min. (6 analyses/compound).
To further examine these products, nucleophilic compounds were added to each solution and co-injected with test compounds to investigate the capability of EC-MS to model metabolic activation and resultant reactions with nucleophiles.

E½ (½ wave potential for product formation) [1] | glutathionyl addition products formed on EC oxidation [2] | SMILES
450 mV vs. Pd |  | COc1cc2c(cc1O)CC[C@@H]1[C@@H]2CC[C@]2(C)[C@@H](O)CC[C@@H]12 [2-Methoxyestradiol]
650 mV vs. Pd |  | CN(C)CCCN1c2ccccc2CCc2ccccc21 [Imipramine]
1100 mV vs. Pd |  | CSCC[C@H](N)C(=O)O [Methionine]
1000 mV vs. Pd |  | CC(C)NCC(O)COc1cccc2ccccc12 (stereo not shown) [Propranolol]

Further lines, the compound ahead of its results:

SMILES | E½ (½ wave potential for product formation) [1] | glutathionyl addition products formed on EC oxidation [2]
C[C@]12CC[C@@H]3c4cc(O)c(O)cc4CC[C@H]3[C@@H]1CC[C@@H]2O [2-Hydroxyestradiol] | 250 mV vs. Pd | 
C[C@]12CC[C@@H]3c4ccc(O)c(O)c4CC[C@H]3[C@@H]1CC[C@@H]2O [4-Hydroxyestradiol] | 250 mV vs. Pd | 
COc1c(O)ccc2c1CC[C@@H]1[C@@H]2CC[C@]2(C)[C@@H](O)CC[C@@H]12 [4-Methoxyestradiol] | 450 mV vs. Pd | 
Cc1cc(C(C)(C)C)c(O)c(C(C)(C)C)c1 [BHT] |  | mono-glutathionyl addition product
N[C@@H](CCS)C(=O)O [Homocysteine] | 1100 mV vs. Pd | 
CCCCN1C[C@H](O)[C@@H](O)[C@H](O)[C@H]1CO [N-butyldeoxynojirimycin] | 1000 mV vs. Pd | 
